Source: paper PMC3075238 (Bioorganic & medicinal chemistry letters, 2011)

Target: T1, caspase-3 in HeLa cell (Homo sapiens, UniProt P42574)
T1 sequence (P42574 29-175 limits assumed): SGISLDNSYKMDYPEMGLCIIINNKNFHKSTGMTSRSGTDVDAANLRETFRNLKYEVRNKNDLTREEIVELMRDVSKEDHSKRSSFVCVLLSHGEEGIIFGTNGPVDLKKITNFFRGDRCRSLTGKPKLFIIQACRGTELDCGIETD
T1 sequence (P42574 176-277 limits assumed): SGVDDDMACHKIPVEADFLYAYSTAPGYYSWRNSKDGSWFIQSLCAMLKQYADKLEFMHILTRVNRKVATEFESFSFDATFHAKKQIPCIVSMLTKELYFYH
Assay: Apo-One Homogeneous Caspase-3/7 whole cell assay in HeLa cells

In the case of `O=C1C(=O)N(Cc2cn(CCF)nn2)c2ccc(S(=O)(=O)N3CCC[C@H]3COc3ccc(F)cc3F)cc21` [Compound 51], the “inhibition potency for caspase-3 in the whole cell assay (in words)” value is reported as “very good inhibition potency”.
